Measurements reported in ChEMBL document CHEMBL1201862, “PubChem BioAssay data set” (2004).
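Dose response: 5 concentrations. Exposure: 48 h. Format: 96-well plates. Endpoint: linear interpolation; highest concentration if not reached. Here, GI50 denotes the concentration required for 50% inhibition of growth.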 Calls of active or inactive are those of the source. No stated cut-off is given here; in the data, active = GI50 up to about 1.1 µM and inactive = higher.

Assays:
Assay in all cases: NCI-60 cell line screen, 48 h
[1] = test system: 786-0
[2] = test system: A549
[3] = test system: ACHN
[4] = test system: CAKI-1
[5] = test system: CCRF-CEM
[6] = test system: COLO 205
[7] = test system: DMS-114
[8] = test system: DMS-273
[9] = test system: EKVX
[10] = test system: HCC 2998
[11] = test system: HCT-116
[12] = test system: HCT-15
[13] = test system: HL-60
[14] = test system: HOP-62
[15] = test system: HOP-92
[16] = test system: HT-29
[17] = test system: IGROV-1
[18] = test system: K562
[19] = test system: KM-20L2
[20] = test system: KM12
[21] = test system: LOX IMVI
[22] = test system: LXFL 529
[23] = test system: M14
[24] = test system: M19-MEL
[25] = test system: MOLT-4
[26] = test system: Malme-3M
[27] = test system: NCI-H226
[28] = test system: NCI-H23
[29] = test system: NCI-H460
[30] = test system: NCI-H522
[31] = test system: OVCAR-3
[32] = test system: OVCAR-4
[33] = test system: OVCAR-5
[34] = test system: OVCAR-8
[35] = test system: RPMI-8226
[36] = test system: RXF 393
[37] = test system: RXF 631
[38] = test system: SF-268
[39] = test system: SF-295
[40] = test system: SF-539
[41] = test system: SK-MEL-28
[42] = test system: SK-MEL-2
[43] = test system: SK-MEL-5
[44] = test system: SK-OV-3
[45] = test system: SN12C
[46] = test system: SNB-19
[47] = test system: SNB-75
[48] = test system: SNB-78
[49] = test system: SR
[50] = test system: SW-620
[51] = test system: TK-10
[52] = test system: UACC-257
[53] = test system: UO-31
[54] = test system: XF498
[55] = test system: A498
[56] = test system: BT-549
[57] = test system: DLD-1
[58] = test system: DU-145
[59] = test system: Hs-578T
[60] = test system: MCF7
[61] = test system: MDA-MB-231
[62] = test system: MDA-MB-435
[63] = test system: MDA-N
[64] = test system: NCI/ADR-RES
[65] = test system: PC-3
[66] = test system: T47D
[67] = test system: U-251
[68] = test system: UACC-62

CCCn1c(SCC)c2cc3cc4ccccc4cc3cc2c1-c1nc(F)nc(F)n1
GI50 [1]: > 100 µM (inactive) | GI50 [2]: > 100 µM (inactive) | GI50 [3]: > 100 µM (inactive) | GI50 [4]: > 100 µM (inactive) | GI50 [5]: > 100 µM (inactive) | GI50 [6]: > 100 µM (inactive) | GI50 [7]: > 100 µM (inactive) | GI50 [8]: > 100 µM (inactive) | GI50 [9]: > 100 µM (inactive) | GI50 [10]: > 100 µM (inactive) | GI50 [11]: > 100 µM (inactive) | GI50 [12]: > 100 µM | GI50 [13]: > 100 µM (inactive) | GI50 [14]: > 100 µM (inactive) | GI50 [15]: > 100 µM (inactive) | GI50 [16]: > 100 µM (inactive) | GI50 [17]: > 100 µM (inactive) | GI50 [18]: > 100 µM (inactive) | GI50 [19]: > 100 µM (inactive) | GI50 [20]: > 100 µM (inactive) | GI50 [21]: > 100 µM (inactive) | GI50 [22]: > 100 µM (inactive) | GI50 [23]: > 100 µM (inactive) | GI50 [24]: > 100 µM (inactive) | GI50 [25]: > 100 µM (inactive) | GI50 [26]: > 100 µM (inactive) | GI50 [27]: > 100 µM (inactive) | GI50 [28]: > 100 µM (inactive) | GI50 [29]: > 100 µM (inactive) | GI50 [30]: > 100 µM (inactive) | GI50 [31]: > 100 µM (inactive) | GI50 [32]: > 100 µM (inactive) | GI50 [33]: > 100 µM (inactive) | GI50 [34]: > 100 µM (inactive) | GI50 [35]: > 100 µM (inactive) | GI50 [36]: > 100 µM (inactive) | GI50 [37]: > 100 µM (inactive) | GI50 [38]: > 100 µM (inactive) | GI50 [39]: > 100 µM (inactive) | GI50 [40]: > 100 µM (inactive) | GI50 [41]: > 100 µM (inactive) | GI50 [42]: > 100 µM (inactive) | GI50 [43]: > 100 µM (inactive) | GI50 [44]: > 100 µM (inactive) | GI50 [45]: > 100 µM (inactive) | GI50 [46]: > 100 µM (inactive) | GI50 [47]: > 100 µM (inactive) | GI50 [48]: > 100 µM (inactive) | GI50 [49]: > 100 µM (inactive) | GI50 [50]: > 100 µM (inactive) | GI50 [51]: > 100 µM (inactive) | GI50 [52]: > 100 µM (inactive) | GI50 [53]: > 100 µM (inactive) | GI50 [54]: > 100 µM (inactive)

N=C(N)SCc1cccc2c(=O)cc(-c3ccccc3)oc12
GI50 [1]: 3.9 µM (inactive) | GI50 [55]: 9.27 µM (inactive) | GI50 [2]: 7.62 µM (inactive) | GI50 [3]: 3.53 µM (inactive) | GI50 [56]: 13.2 µM (inactive) | GI50 [4]: 3.94 µM (inactive) | GI50 [5]: 3.87 µM (inactive) | GI50 [6]: 3.78 µM (inactive) | GI50 [57]: 7.59 µM (inactive) | GI50 [7]: 6.47 µM (inactive) | GI50 [8]: 7.14 µM (inactive) | GI50 [58]: 4.93 µM (inactive) | GI50 [9]: 8.75 µM (inactive) | GI50 [10]: 12 µM (inactive) | GI50 [11]: 4.73 µM (inactive) | GI50 [12]: 10.5 µM | GI50 [13]: 3.18 µM (inactive) | GI50 [14]: 10.8 µM (inactive) | GI50 [15]: 4.03 µM (inactive) | GI50 [16]: 4.84 µM (inactive) | GI50 [59]: 16.2 µM (inactive) | GI50 [17]: 6.32 µM (inactive) | GI50 [18]: 5.35 µM (inactive) | GI50 [19]: 6.24 µM (inactive) | GI50 [20]: 9.29 µM (inactive) | GI50 [21]: 12.2 µM (inactive) | GI50 [23]: 5.28 µM (inactive) | GI50 [24]: 13.2 µM (inactive) | GI50 [60]: 2.73 µM (inactive) | GI50 [61]: 6.41 µM (inactive) | GI50 [62]: 8.02 µM (inactive) | GI50 [63]: 6.53 µM (inactive) | GI50 [25]: 2.68 µM (inactive) | GI50 [26]: 10.8 µM (inactive) | GI50 [27]: 15.9 µM (inactive) | GI50 [28]: 5.58 µM (inactive) | GI50 [29]: 4.72 µM (inactive) | GI50 [30]: 3.87 µM (inactive) | GI50 [64]: 22 µM (inactive) | GI50 [31]: 6.97 µM (inactive) | GI50 [32]: 7.24 µM (inactive) | GI50 [33]: 16.5 µM (inactive) | GI50 [34]: 4.5 µM (inactive) | GI50 [65]: 4.54 µM (inactive) | GI50 [35]: 2.54 µM (inactive) | GI50 [36]: 4.79 µM (inactive) | GI50 [37]: 9.95 µM (inactive) | GI50 [38]: 12.4 µM (inactive) | GI50 [39]: 11.4 µM (inactive) | GI50 [40]: 7.26 µM (inactive) | GI50 [41]: 4.43 µM (inactive) | GI50 [42]: 5.56 µM (inactive) | GI50 [43]: 11.1 µM (inactive) | GI50 [44]: 12.8 µM (inactive) | GI50 [45]: 6.19 µM (inactive) | GI50 [46]: 23.9 µM (inactive) | GI50 [47]: 5.41 µM (inactive) | GI50 [48]: 6.32 µM (inactive) | GI50 [49]: 4.05 µM (inactive) | GI50 [50]: 4.37 µM (inactive) | GI50 [66]: 3.75 µM (inactive) | GI50 [51]: 7.57 µM (inactive) | GI50 [67]: 7.66 µM (inactive) | GI50 [52]: 10.9 µM (inactive) | GI50 [68]: 12.7 µM (inactive) | GI50 [53]: 2.84 µM (inactive) | GI50 [54]: 5.87 µM (inactive)
